Experimental data as given in ChEMBL document CHEMBL5113403, “Design, synthesis, and biological evaluation of novel pyrazolo [3,4-d]pyrimidine derivatives as potent PLK4 inhibitors for the treatment of TRIM37-amplified breast cancer” (Eur J Med Chem, 2022).

How the values were obtained:
[1] = molecular target: Serine/threonine-protein kinase PAK 4 (Homo sapiens, UniProt O96013); experiment: Inhibition of PAK4 (unknown origin) incubated for 60 mins by time-resolved HTRF assay
[2] = Plasma stability in human assessed as compound remaining at 100 uM measured after 30 mins by LC-MS/MS analysis relative to control; format: ADME, cell-free; settings: read-out: Stability
[3] = Metabolic stability in human liver microsomes assessed as half-life at 100 uM measured upto 60 mins in the presence of NADPH by LC-MS/MS analysis; format: ADME, Microsome
[4] = Metabolic stability in human liver microsomes assessed as intrinsic clearance at 100 uM measured upto 60 mins in the presence of NADPH by LC-MS/MS analysis; format: ADME, Microsome; settings: 1 h
CYP2D6 = CYP2D6 (Homo sapiens, UniProt P10635); experiment: Inhibition of CYP2D6 in human liver microsomes at 10 uM preincubated for 10 mins followed by addition of NADPH-regenerating system and measured after 15 mins by LC-MS/MS analysis relative to control; format: ADME, Microsome; settings: time 25 min
CYP2D6, sequence (P10635 whole entry): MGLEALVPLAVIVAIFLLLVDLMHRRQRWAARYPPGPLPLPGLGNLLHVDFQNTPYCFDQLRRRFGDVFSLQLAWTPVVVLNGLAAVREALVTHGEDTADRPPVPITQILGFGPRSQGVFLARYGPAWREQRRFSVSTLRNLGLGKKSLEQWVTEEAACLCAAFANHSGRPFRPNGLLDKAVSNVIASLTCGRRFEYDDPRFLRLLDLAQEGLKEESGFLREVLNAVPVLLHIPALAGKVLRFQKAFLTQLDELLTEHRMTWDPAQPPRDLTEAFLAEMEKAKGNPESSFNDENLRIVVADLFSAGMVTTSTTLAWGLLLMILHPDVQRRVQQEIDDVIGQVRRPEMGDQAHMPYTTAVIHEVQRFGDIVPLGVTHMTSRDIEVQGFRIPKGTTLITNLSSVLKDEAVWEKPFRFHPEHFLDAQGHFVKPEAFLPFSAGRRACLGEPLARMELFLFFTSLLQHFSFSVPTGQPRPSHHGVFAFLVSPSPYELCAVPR

[5] = MRT in Sprague-Dawley rat at 3 mg/kg, iv by LC-MS/MS analysis; format: ADME, organism-based; settings: in vivo
MCF7 [6] = experiment: Induction of apoptosis in human MCF7 cells assessed as early apoptotic cells at 1 uM incubated for 48 hrs by Annexin-V-FITC/PI staining based flow cytometric analysis (reference value: 2.83 %); format: functional
MCF7 [7] = experiment: Induction of apoptosis in human MCF7 cells assessed as early apoptotic cells at 0.25 uM incubated for 48 hrs by Annexin-V-FITC/PI staining based flow cytometric analysis (reference value: 2.83 %); format: functional
MCF7 [8] = experiment: Induction of apoptosis in human MCF7 cells assessed as early apoptotic cells at 0.10 uM incubated for 48 hrs by Annexin-V-FITC/PI staining based flow cytometric analysis (reference value: 2.83 %); format: functional; settings: dose 0.1 µM
MCF7 [9] = experiment: Induction of apoptosis in human MCF7 cells assessed as late apoptotic cells at 0.10 uM incubated for 48 hrs by Annexin-V-FITC/PI staining based flow cytometric analysis (reference value: 0.019 %); format: functional; settings: dose 0.1 µM
MCF7 [10] = experiment: Induction of apoptosis in human MCF7 cells assessed as total apoptotic cells at 2.50 uM incubated for 48 hrs by Annexin-V-FITC/PI staining based flow cytometric analysis relative to control; format: functional; settings: dose 2.5 µM
MCF7 [11] = experiment: Induction of cell cycle arrest in human MCF7 cells assessed as G2 phase cells at 1 uM measured after 48 hrs by flow cytometry analysis (reference value: 31.8 %); format: functional
MCF7 [12] = experiment: Induction of cell cycle arrest in human MCF7 cells assessed as decrease in G1 phase cells at 0.10 uM measured after 48 hrs by flow cytometry analysis (reference value: 56.9 %); format: functional; set-up: scale not given: the % may be the effect or the level left; settings: dose 0.1 µM
MCF7 [13] = experiment: Induction of cell cycle arrest in human MCF7 cells assessed as G2 phase cells at 0.10 uM measured after 48 hrs by flow cytometry analysis (reference value: 31.8 %); format: functional; settings: dose 0.1 µM

Serine/threonine-protein kinase PAK 4, sequence (O96013 whole entry): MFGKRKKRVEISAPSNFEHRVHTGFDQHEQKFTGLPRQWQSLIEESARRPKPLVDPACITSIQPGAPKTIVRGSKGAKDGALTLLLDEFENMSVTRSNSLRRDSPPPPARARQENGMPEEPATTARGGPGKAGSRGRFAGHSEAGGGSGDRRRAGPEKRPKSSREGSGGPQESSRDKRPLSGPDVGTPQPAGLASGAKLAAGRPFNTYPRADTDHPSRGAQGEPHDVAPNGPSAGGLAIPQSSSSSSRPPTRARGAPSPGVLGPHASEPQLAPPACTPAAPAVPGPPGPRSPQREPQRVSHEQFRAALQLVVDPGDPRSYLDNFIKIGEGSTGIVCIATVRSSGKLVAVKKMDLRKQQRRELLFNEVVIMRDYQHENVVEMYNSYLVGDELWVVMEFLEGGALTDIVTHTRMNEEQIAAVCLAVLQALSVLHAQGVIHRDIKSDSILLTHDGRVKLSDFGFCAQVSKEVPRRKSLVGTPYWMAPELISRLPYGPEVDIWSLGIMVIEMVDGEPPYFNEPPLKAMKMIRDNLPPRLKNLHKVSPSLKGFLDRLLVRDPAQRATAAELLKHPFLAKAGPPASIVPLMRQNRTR

IC50 [1]: 1.75 µM
remaining at 0.5 h, 100 µM [2]: 96.6%
half-life at 100 µM [3]: 29.6 min
CLint [4]: 46.8 µL/min/mg
inhibition at 0.25 h, 10 µM (CYP2D6): 13.4%
MRT [5]: 64.2 min
Structure (SMILES): Cc1cc(Nc2nc(NCc3ccc(F)cc3F)nc3c2cnn3C2CCOCC2)n[nH]1
Activity (MCF7 [6]): 65%
Activity (MCF7 [7]): 24.8%
Activity (MCF7 [8]): 19.3%
Activity (MCF7 [9]): 4.74%
Activity (MCF7 [10]): 79.3%
Activity (MCF7 [11]): 58.3%
Activity (MCF7 [12]): 53.4%
Activity (MCF7 [13]): 38%
